# Where two headings read alike, the source gives them in different places.
# Key:
# pigweed [1] = assay: Test A preemergence; format: in vivo, Amaranthus retroflexus
# Method in brief: (§1)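 Injury scores run from 0, no effect, to 100, complete control, judged by eye against untreated plants roughly 10 days after treatment. Chemicals carried a surfactant in a non-phytotoxic solvent and went onto loam–sand soil preemergence or onto one- to two-leaf seedlings postemergence.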
# blackgrass = assay: Test C preemergence; format: in vivo, Alopecurus myosuroides
# Description: (§2) Seeds of plant species selected from blackgrass (Alopecurus myosuroides), Italian ryegrass (Lolium multiflorum), wheat, winter (winter wheat, Triticum aestivum), galium (catchweed bedstraw, Galium aparine), corn (Zea mays), large (Lg) crabgrass (Digitaria sanguinalis), giant foxtail (Setaria faberii), johnsongrass (Sorghum halepense), lambsquarters (Chenopodium album), morningglory (Ipomoea coccinea), yellow nutsedge (Cyperus esculentus), pigweed (Amaranthus retroflexus), ragweed (common ragweed, Ambrosia elatior), soybean (Glycine max), barnyardgrass (Echinochloa crus-galli), oilseed rape (Brassica napus), waterhemp (common waterhemp, Amaranthus rudis), kochia (Kochia scoparia), wild oat (Avena fatua), surinam grass (Brachiaria decumbens), foxtail, green (green foxtail, Setaria viridis), goosegrass (Eleusine indica), bromegrass, downy (downy bromegrass, Bromus tectorum), nightshade (eastern black nightshade, Solanum ptycanthum), cocklebur (common cocklebur, Xanthium strumarium), cupgrass, woolly (woolly cupgrass, Eriochloa villosa), bermudagrass (Cynodon dactylon), sunflower, (common oilseed sunflower, Helianthus annuus), Russian thistle (Salsola kali), and velvetleaf (Abutilon theophrasti) were planted into a blend of loam soil and sand and treated preemergence with test chemicals formulated in a non-phytotoxic solvent mixture which included a surfactant.
# (§3) At the same time, plants selected from these crop and weed species and also barley, winter (winter barley, Hordeum vulgare), windgrass (Apera spica-venti), chickweed (common chickweed, Stellaria media), deadnettle (henbit deadnettle, Lamium amplexicaule), and canarygrass (littleseed canarygrass, Phalaris minor) were planted in pots containing Redi-Earth® planting medium (Scotts Company, 14111 Scottslawn Road, Marysville, Ohio 43041) comprising spaghnum peat moss, vermiculite, wetting agent and starter nutrients and treated with postemergence applications of test chemicals formulated in the same manner. Plants ranged in height from 2 to 18 cm (1- to 4-leaf stage) for postemergence treatments. Treated plants and controls were maintained in a greenhouse for 13 to 15 days, after which time all species were compared to controls and visually evaluated. Plant response ratings, summarized in Table C, are based on a scale of 0 to 100 where 0 is no effect and 100 is complete control. A dash (-) response means no test result.
# Italian ryegrass = assay: Test C preemergence; format: in vivo, Lolium multiflorum
# Description: as §2, §3
# morningglory = assay: Test C preemergence; format: in vivo, Ipomoea coccinea
# Description: as §2, §3
# yellow nutsedge = assay: Test C preemergence; format: in vivo, Cyperus esculentus
# Description: as §2, §3
# pigweed [2] = assay: Test C preemergence; format: in vivo, Amaranthus retroflexus
# Description: as §2, §3
# ragweed = assay: Test C preemergence; format: in vivo, Ambrosia elatior
# Description: as §2, §3
# soybean = assay: Test C preemergence; format: in vivo, Glycine max
# Description: as §2, §3
# large (Lg) crabgrass = assay: Test A preemergence; format: in vivo, Digitaria sanguinalis
# Method in brief: as §1
# [3] = 31 g ai/ha, 0 to 100 scale where 0 is no effect and 100 is complete control, visual, approximately 10 days
# [4] = 16 g ai/ha, preemergence, scale 0 to 100 (0 no effect, 100 complete control)
# [5] = 125 g ai/ha, preemergence, scale 0 (no effect) to 100 (complete control)
# [6] = Preemergence, 62 g ai/ha, scale 0 to 100, 0 no effect, 100 complete control
# [7] = 125 g ai/ha, 0 to 100 scale where 0 is no effect and 100 is complete control
# [8] = 500 g ai/ha, 0 to 100 scale, 0 no effect, 100 complete control, approx. 10 days
smiles,measurement,setting,value
Fc1cccc(Oc2ncc(Cl)cn2)c1-n1cc(OCC(F)(F)F)cn1 [Compound 270],"Plant response rating, Pigweed",pigweed [1]; [3],100
same,Pigweed plant response rating (0 to 100 scale),pigweed [1]; 125 g ai/ha,100
same,Blackgrass plant response rating,blackgrass; [4],0
same,Blackgrass plant response rating,blackgrass; [5],95
same,"Plant response rating, Blackgrass",blackgrass; [6],70
same,"Ryegrass, Italian plant response rating",Italian ryegrass; [4],0
same,"Ryegrass, Italian plant response rating",Italian ryegrass; [5],50
same,"Plant response rating, Ryegrass, Italian",Italian ryegrass; [6],10
same,Morningglory plant response rating,morningglory; [4],0
same,Morningglory plant response rating,morningglory; [5],100
same,"Plant response rating, Morningglory",morningglory; [6],55
same,"Nutsedge, Yellow plant response rating",yellow nutsedge; [4],0
same,"Nutsedge, Yellow plant response rating",yellow nutsedge; [5],45
same,"Plant response rating, Nutsedge, Yellow",yellow nutsedge; [6],15
same,Pigweed plant response rating,pigweed [2]; [4],100
same,Pigweed plant response rating,pigweed [2]; [5],100
same,"Plant response rating, Pigweed",pigweed [2]; [6],100
same,Ragweed plant response rating,ragweed; [4],0
same,Ragweed plant response rating,ragweed; [5],70
same,"Plant response rating, Ragweed",ragweed; [6],45
same,Soybean plant response rating,soybean; [4],0
same,Soybean plant response rating,soybean; [5],85
same,"Plant response rating, Soybean",soybean; [6],25
"N#Cc1cccc(Oc2ncc(Cl)cn2)c1-n1cnc(C(F)(F)F)c1 [Compound 252, 3-[(5-chloro-2-pyrimidinyl)oxy]-2-[4-(trifluoromethyl)-1H-imidazol-1-yl]benzonitrile]",Pigweed plant response rating (0 to 100 scale),pigweed [1]; 125 g ai/ha,100
same,pest or weed control at 31 g/ha,"pigweed [1]; Amaranthus retroflexus, pre-emergence, 240 h, 31 g ai/ha, 0 to 100 scale where 0 is no effect and 100 is complete control, visual, approximately 10 days, read-out: Plant response rating, Pigweed",100%
same,pest or weed control at 500 g/ha,"pigweed [1]; Amaranthus retroflexus, pre-emergence, 240 h, 500 g ai/ha, 0 to 100 scale where 0 is no effect and 100 is complete control, read-out: Pigweed plant response rating",100%
same,pest or weed control at 16 g/ha,"blackgrass; Alopecurus myosuroides, pre-emergence, 16 g ai/ha, preemergence, scale 0 to 100 (0 no effect, 100 complete control), read-out: Blackgrass plant response rating",10%
same,pest or weed control at 125 g/ha,"blackgrass; Alopecurus myosuroides, pre-emergence, 125 g ai/ha, preemergence, scale 0 (no effect) to 100 (complete control), read-out: Blackgrass plant response rating",95%
same,pest or weed control at 62 g/ha,"blackgrass; Alopecurus myosuroides, pre-emergence, Preemergence, 62 g ai/ha, scale 0 to 100, 0 no effect, 100 complete control, read-out: Plant response rating, Blackgrass",90%
same,pest or weed control at 16 g/ha,"Italian ryegrass; Lolium multiflorum, pre-emergence, 16 g ai/ha, preemergence, scale 0 to 100 (0 no effect, 100 complete control), read-out: Ryegrass, Italian plant response rating",0%
same,pest or weed control at 125 g/ha,"Italian ryegrass; Lolium multiflorum, pre-emergence, 125 g ai/ha, preemergence, scale 0 (no effect) to 100 (complete control), read-out: Ryegrass, Italian plant response rating",90%
same,pest or weed control at 62 g/ha,"Italian ryegrass; Lolium multiflorum, pre-emergence, Preemergence, 62 g ai/ha, scale 0 to 100, 0 no effect, 100 complete control, read-out: Plant response rating, Ryegrass, Italian",60%
same,pest or weed control at 16 g/ha,"morningglory; Ipomoea, pre-emergence, 16 g ai/ha, preemergence, scale 0 to 100 (0 no effect, 100 complete control), read-out: Morningglory plant response rating",45%
same,pest or weed control at 125 g/ha,"morningglory; Ipomoea, pre-emergence, 125 g ai/ha, preemergence, scale 0 (no effect) to 100 (complete control), read-out: Morningglory plant response rating",100%
same,pest or weed control at 62 g/ha,"morningglory; Ipomoea, pre-emergence, Preemergence, 62 g ai/ha, scale 0 to 100, 0 no effect, 100 complete control, read-out: Plant response rating, Morningglory",95%
same,pest or weed control at 16 g/ha,"yellow nutsedge; Cyperus, pre-emergence, 16 g ai/ha, preemergence, scale 0 to 100 (0 no effect, 100 complete control), read-out: Nutsedge, Yellow plant response rating",0%
same,pest or weed control at 125 g/ha,"yellow nutsedge; Cyperus, pre-emergence, 125 g ai/ha, preemergence, scale 0 (no effect) to 100 (complete control), read-out: Nutsedge, Yellow plant response rating",60%
same,pest or weed control at 62 g/ha,"yellow nutsedge; Cyperus, pre-emergence, Preemergence, 62 g ai/ha, scale 0 to 100, 0 no effect, 100 complete control, read-out: Plant response rating, Nutsedge, Yellow",40%
same,pest or weed control at 16 g/ha,"pigweed [2]; Amaranthus retroflexus, pre-emergence, 16 g ai/ha, preemergence, scale 0 to 100 (0 no effect, 100 complete control), read-out: Pigweed plant response rating",98%
same,pest or weed control at 125 g/ha,"pigweed [2]; Amaranthus retroflexus, pre-emergence, 125 g ai/ha, preemergence, scale 0 (no effect) to 100 (complete control), read-out: Pigweed plant response rating",100%
same,pest or weed control at 62 g/ha,"pigweed [2]; Amaranthus retroflexus, pre-emergence, Preemergence, 62 g ai/ha, scale 0 to 100, 0 no effect, 100 complete control, read-out: Plant response rating, Pigweed",100%
same,pest or weed control at 16 g/ha,"ragweed; Ambrosia artemisiifolia, pre-emergence, 16 g ai/ha, preemergence, scale 0 to 100 (0 no effect, 100 complete control), read-out: Ragweed plant response rating",40%
same,pest or weed control at 125 g/ha,"ragweed; Ambrosia artemisiifolia, pre-emergence, 125 g ai/ha, preemergence, scale 0 (no effect) to 100 (complete control), read-out: Ragweed plant response rating",100%
same,pest or weed control at 62 g/ha,"ragweed; Ambrosia artemisiifolia, pre-emergence, Preemergence, 62 g ai/ha, scale 0 to 100, 0 no effect, 100 complete control, read-out: Plant response rating, Ragweed",98%
same,plant injury at 16 g/ha,"soybean; Glycine max, pre-emergence, 16 g ai/ha, preemergence, scale 0 to 100 (0 no effect, 100 complete control), read-out: Soybean plant response rating",65%
same,plant injury at 125 g/ha,"soybean; Glycine max, pre-emergence, 125 g ai/ha, preemergence, scale 0 (no effect) to 100 (complete control), read-out: Soybean plant response rating",98%
same,plant injury at 62 g/ha,"soybean; Glycine max, pre-emergence, Preemergence, 62 g ai/ha, scale 0 to 100, 0 no effect, 100 complete control, read-out: Plant response rating, Soybean",95%
FCc1cccc(Oc2ncc(Cl)cn2)c1-n1cc(Cl)cn1 [Compound 250],"Plant response rating, Pigweed",pigweed [1]; [3],80
same,Pigweed plant response rating (0 to 100 scale),pigweed [1]; 125 g ai/ha,100
same,Blackgrass plant response rating,blackgrass; [4],0
same,Blackgrass plant response rating,blackgrass; [5],90
same,"Plant response rating, Blackgrass",blackgrass; [6],70
same,"Ryegrass, Italian plant response rating",Italian ryegrass; [4],0
same,"Ryegrass, Italian plant response rating",Italian ryegrass; [5],15
same,"Plant response rating, Ryegrass, Italian",Italian ryegrass; [6],5
same,Morningglory plant response rating,morningglory; [4],0
same,Morningglory plant response rating,morningglory; [5],50
same,"Plant response rating, Morningglory",morningglory; [6],50
same,"Nutsedge, Yellow plant response rating",yellow nutsedge; [4],0
same,"Nutsedge, Yellow plant response rating",yellow nutsedge; [5],5
same,Pigweed plant response rating,pigweed [2]; [4],85
same,Pigweed plant response rating,pigweed [2]; [5],100
same,"Plant response rating, Pigweed",pigweed [2]; [6],100
same,Ragweed plant response rating,ragweed; [4],15
same,Ragweed plant response rating,ragweed; [5],75
same,"Plant response rating, Ragweed",ragweed; [6],40
same,Soybean plant response rating,soybean; [5],90
same,"Plant response rating, Soybean",soybean; [6],65
Clc1cnc(Oc2ccccc2-n2cc(Cl)cn2)nc1 [Compound 3],"Crabgrass, Large plant response rating",large (Lg) crabgrass; [7],90
same,"Crabgrass, Large plant response rating",large (Lg) crabgrass; [8],100
same,Pigweed plant response rating,pigweed [1]; [7],90
same,Pigweed plant response rating,pigweed [1]; [8],100
"FC(F)(F)c1ccn(-c2ccccc2Oc2ncc(Cl)cn2)n1 [Compound 2, 5-chloro-2-[2-[3-(trifluoromethyl)-1H-pyrazol-1-yl]phenoxy]pyrimidine]",pest or weed control at 125 g/ha,"large (Lg) crabgrass; Digitaria sanguinalis, pre-emergence, 240 h, 125 g ai/ha, 0 to 100 scale where 0 is no effect and 100 is complete control, read-out: Crabgrass, Large plant response rating",80%
same,pest or weed control at 500 g/ha,"large (Lg) crabgrass; Digitaria sanguinalis, pre-emergence, 240 h, 500 g ai/ha, 0 to 100 scale, 0 no effect, 100 complete control, approx. 10 days, read-out: Crabgrass, Large plant response rating",100%
same,pest or weed control at 125 g/ha,"pigweed [1]; Amaranthus retroflexus, pre-emergence, 240 h, 125 g ai/ha, 0 to 100 scale where 0 is no effect and 100 is complete control, read-out: Pigweed plant response rating",90%
same,pest or weed control at 500 g/ha,"pigweed [1]; Amaranthus retroflexus, pre-emergence, 240 h, 500 g ai/ha, 0 to 100 scale, 0 no effect, 100 complete control, approx. 10 days, read-out: Pigweed plant response rating",100%

# — patent US9695155B2, “Herbicidal substituted pyrimidinyloxy benzene compounds” (E. I. DU PONT DE NEMOURS AND COMPANY, priority 2013, dated 2017)
